Data taken from patent US10328063B2, “Method of wound healing” (CONNEXIOS LIFE SCIENCES PVT. LTD, priority 2015, dated 2019).

Columns and labels:
[1] = test system: Human Dermal Fibroblast cells (HDF); assay: In vitro scratch assay; assay type: cell-based; settings: 400 nM cortisone with 1 μM test molecule, 24 h
Procedure: Human Dermal Fibroblast cells (HDF) cells were seeded in 24 well plates (25000 cells/mL) in 1 mL of growth media (Media-106, Gibco) and allowed to grow for 24 h at 37° C. and 5% CO2. A small linear scratch was created in the confluent monolayer by gently scraping with sterile p200 pipette tips (care was taken during scratching process to ensure universal size and distant was made for all samples). Cells were extensively rinsed with PBS to remove cellular debris before adding the media with different treatment solutions (400 nM cortisone with or without 1 μM of test molecule according to Formula (I)). After 24 h, images of migrated cells were taken using a digital camera connected to inverted microscope to observe the closure of wound area. Scratch assays were performed in quadruplicate.

[2] = test system: excision wound in diet induced obese C57 mice; assay: Excision wound model in HFD fed C57 mice (wound contraction, histopathology); assay type: in vivo; settings: for Wound contraction profile in C57 mice: HFD, 0.5% cream topical twice a day, Mean ± SEM
From the text: (§1) After an acclimatization period, C57 animals on the HFD were weighed and randomly allocated into different groups such as HFD cream base control and HFD+0.5% CNX-010-640 cream. C57 animals on a lean chow diet (Cream base) were also used as a control. Swiss albino mice on a lean chow diet (excision experiments only) were randomized into cream base control and 0.5% CNX-010-640 cream.
(§2) Mice were anaesthetized using ketamine and xylazine, hair was trimmed off and a circular excision of 20 mm^2 size was made on the dorsal neck region. CNX-010-640 cream was applied topically, twice a day. The degree of protection for wound remodeling was assessed by measuring wound contraction and period of epithelialisation. Wound contraction was measured on alternate days by tracing the raw wound area on graph paper carried by butter paper. Scar residue and time for completion of epithelialisation was measured. Results are shown in FIGS. 2 and 3, and Tables 1 to 3. On the termination day animals were euthanized and tissue samples containing wound was collected to study histopathological changes (as shown in FIGS. 6 to 11) and gene expression profiles were determined (FIGS. 12 to 17).
[7] All the values are expressed as Mean±SEM, one way analysis of variance was performed followed by Dunnets' test for establishing the significance value of the treatment groups when compared with the HFD control.

[3] = test system: excision wound in Swiss albino mice; assay: Excision wound model in Swiss albino mice (wound contraction); assay type: in vivo; settings: for Wound contraction profile in SAM: 0.5% cream topical twice a day, Mean ± SEM
From the text: as §1, §2

[4] = test system: excision wound in db/db mice; assay: Excision wound model in db/db mice (wound contraction); assay type: in vivo; settings: for Wound contraction profile in db/db mice: 0.5% cream topical twice a day, Mean ± SEM
Procedure: (§3) db/db Mice (from JAX lab) on chow diet were weighed and randomly allocated into different groups such as db/db cream base control and db/db+0.5% CNX-010-640 cream.
as §2

[5] = test system: incision wound in diet induced obese C57 mice; assay: Incision wound model in HFD fed C57 mice (tensile strength, collagen content); assay type: in vivo; settings: diabetic C57 mice
From the text: as §1
(§4) [6] Mice were anaesthetized using ketamine and xylazine, hair was trimmed off and a longitudinal incision of 4 to 5 cm length was made on the back and stitched with thread. CNX-010-640 cream was applied topically, twice a day. The degree of protection for wound remodeling was assessed by measuring tensile strength and collagen content of skin at the healed wound site. Wound tensile strength was measured after 14 days of treatment.

[6] = test system: incision wound in db/db mice; assay: Incision wound model in db/db mice (tensile strength); assay type: in vivo; settings: diabetic db/db mice
Procedure: as §3, §4

[7] = test system: markers of inflammation at the wound area; assay: Ex vivo gene expression profile from excision wound model; assay type: in vivo; settings: HFD C57BL/6 mice, after one week of compound treatment, skin near wound
From the text: [13] […] The db/db control group wounds were not healed within this time. Furthermore, the size of wound of these control groups at the end of the experiment period (day 12) was achieved by the CNX-010-640 treated mice after only 8 days of treatment. […] [16] […] [17] Additionally, the degree of polymorphonuclear cell infiltration (indicative of inflammatory phase) was greater in the G2 group compared to the G3 group (compare FIGS. 6 and 7). From these microscopic observations it can be concluded that the treatment with 0.5% CNX-010-640 hastened the healing process, as it facilitated an early advancement into the proliferative phase in animals treated with CNX-010-640 (G3 group) of this study. Thus CNX-010-640 cream, when applied topically b.i.d, in excision and incision wound healing model on HFD background animals and normal SAM mice, enhanced the healing process in comparison with normal healing and VersaPro control. […] Gene expression was measured using SYBR Green PCR Master Mix (Eurogenetic, Belgium) and relative levels of expression were quantified (see FIGS. 12 to 17). From this, it is apparent that compound treatment has reduced the markers of inflammation at the wound area, as measured by gene expression. […]

[8] = HFD C57 mice, 0.5% cream, excision wound
[9] = diabetes-induced C57 mice, excision

With `CC(CC(=O)N1C2CC3CC1CC(O)(C3)C2)c1c[nH]c2ccc(Cl)c(Cl)c12` (stereo not drawn) [CNX-010-640, 3-(4,5-Dichloro-1H-indol-3-yl)-1-(5-hydroxy-2-azatricyclo[3.3.1.1^3,7]dec-2-yl)butan-1-one] the “closure of wound area (wound healing properties, image analysis)” value [1] was “good wound healing properties”, the “Wound contraction profile in C57 mice” value ([2]; Day 0) was 25.10 ± 1.40 mm^2 and the “Wound contraction profile in C57 mice” value ([2]; Day 2) was 15.80 ± 1.77 mm^2. For the same molecule, the “Wound contraction profile in C57 mice” value ([2]; Day 4) was 17.90 ± 1.92 mm^2, the “Wound contraction profile in C57 mice” value ([2]; Day 6) was 9.40 ± 1.42 mm^2 and the “Wound contraction profile in C57 mice” value ([2]; Day 8) was 5.60 ± 1.47 mm^2. The “Wound contraction profile in C57 mice” value ([2]; Day 10) was 4.00 ± 1.41 mm^2, the “Wound contraction profile in C57 mice” value ([2]; Day 12) was 0.25 ± 0.25 mm^2 and the “degree of collagen deposition (histopathology) in comparison with HFD+VersaPro control” value [2, 8] was “higher degree”. The “degree of fibroblast proliferation (histopathology) in comparison with HFD+VersaPro control” value [2, 8] was “higher degree”, the “days of treatment to reach the wound size of the control group at day 12” value (from here on “days of treatment”) [2, 9] was 6 days and the “time to complete healing of the wound” value [2, 9] was 12 days. For the same molecule, the “degree of polymorphonuclear cell infiltration (histopathology)” value ([2]; diabetes-induced mouse, VersaPro cream with 0.5% compound, excision wound) was “mild”, the “Wound contraction profile in SAM” value ([3]; Day 0) was 22.77 ± 1.38 mm^2 and the “Wound contraction profile in SAM” value ([3]; Day 2) was 15.00 ± 2.18 mm^2. The “Wound contraction profile in SAM” value ([3]; Day 4) was 14.33 ± 2.62 mm^2, the “Wound contraction profile in SAM” value ([3]; Day 6) was 10.44 ± 2.80 mm^2 and the “Wound contraction profile in SAM” value ([3]; Day 8) was 3.20 ± 1.46 mm^2. For the same molecule, the “Wound contraction profile in SAM” value ([3]; Day 10) was 1.00 ± 0.54 mm^2, the “Wound contraction profile in SAM” value ([3]; Day 12) was 0.600 ± 0.600 mm^2 and the “days of treatment” value ([3]; Swiss albino mice, excision) was 6 days. For the same molecule, the “time to complete healing of the wound” value ([3]; non-diabetic Swiss albino mice, excision) was 12 days, the “Wound contraction profile in db/db mice” value ([4]; Day 0) was 17.10 ± 0.69 mm^2 and the “Wound contraction profile in db/db mice” value ([4]; Day 2) was 23.80 ± 0.87 mm^2. For the same molecule, the “Wound contraction profile in db/db mice” value ([4]; Day 4) was 14.40 ± 0.91 mm^2, the “Wound contraction profile in db/db mice” value ([4]; Day 6) was 11.40 ± 0.48 mm^2 and the “Wound contraction profile in db/db mice” value ([4]; Day 8) was 8.20 ± 0.42 mm^2. For the same molecule, the “Wound contraction profile in db/db mice” value ([4]; Day 10) was 5.00 ± 0.47 mm^2, the “Wound contraction profile in db/db mice” value ([4]; Day 12) was 2.20 ± 0.42 mm^2 and the “Wound contraction profile in db/db mice” value ([4]; Day 16) was 0.30 ± 0.21 mm^2. For the same molecule, the “days of treatment” value ([4]; db/db mice, excision) was 8 days, the “time to complete healing of the wound” value ([4]; diabetic db/db mice, excision) was 16 days and the “improvement of tensile strength of skin at the incision site compared with control formulation” value ([5]; after 14 days of treatment) was “up to 38%”. The “collagen content, as estimated by measurement of hydroxyproline, compared with controls” value ([5]; incision) was “greater”, the “improvement of tensile strength of skin at the incision site compared with control formulation” value [6] was “up to 18%” and the “markers of inflammation at the wound area, as measured by gene expression” value [7] was “reduced”.
